The nature of data set [1]: Elimination t1/2 of Compound 1 in mice. The settings on record: mouse, in vivo.
Data set [2] has as its system C57BL/6 mice fed an MCD diet. Put plainly: Methionine-choline deficient diet (MCD) model of NASH. It counts as in vivo. The settings on record: end of MCD study; ip bid 28 days. On the procedure: Mice fed an MCD diet is a standard model of diet induced NASH.^47,48 All animals were housed in ventilated standard housing cages throughout the experimental phase. Tap water was provided ad libitum to all animals. Male, 8-week old, C57BL/6 mice from Charles River were acclimated for 3 days maintained on a standard chow diet and group housed in hepa-filtered cages (5 animals per cage) on a normal 12 hours light cycle (at 8 am to 8 pm lights off). The temperature and humidity were 22±2° C. and 50±10%, respectively. Cages litters were changed once a week. ^47 Reid D T, Reyes J L, McDonald B A, Vo T, Reimer R A, Eksteen B. Kupffer Cells Undergo Fundamental Changes during the Development of Experimental NASH and Are Critical in Initiating Liver Damage and Inflammation. PLoS One. 2016, 25; 11:e0159524.^48 Ramadori P, Weiskirchen R, Trebicka J, Streetz K. Mouse models of metabolic liver injury. Lab Anim. 2015; 49(1 Suppl):47-58.
Following acclimation, the animals were randomized into homogenous treatment groups according to their body weight, and fed ad libitum a diet deficient in methionine and choline: 4.2 kcal/g; MP Biomedicals, Solon, OH). Food and water intake were measured 3 times per week (at the same time as body weight measurements). After the acclimation period, the 24 mice (n=6/treatment group) were weighed 3 times per week until sacrifice.
The 4 treatment group were: • Group 1: Vehicle+MCD • Group 2: MCD+200 mg/kg UR • Group 3: MCD+60 mg/kg Compound I • Group 4: MCD+60 mg/kg Compound 1 plus 200 mg/kg UR 30 minutes post Compound 1
All Compound 1 and UR doses (mg/kg in 10 mL/kg of vehicle) were ip, bid at least 8 hours apart, for 28 days. Vehicle=PBS. Vehicle, UR and Compound 1±UR will be dosed daily starting 2 days prior to placing the animals on a MCD diet. Mice were on the MCD diet for 26 days.
After 26 days on MCD, the animals were sacrificed ˜2 hours after the last dose and non-fasted glucose was measured along with a plasma lipid panel, TNF-α, ALT and AST. Total body weight was determined weekly. Total liver was weighed and the medial lobe excised, formalin fixed and stained with Oil Red O to evaluate lipid content. An intensity score for the fixed tissue slides measured by an independent histopathologist was also determined.

In data set [3] the test system is C57BL/6 mice fed an MCD diet. The description is as above. The data set is classed as in vivo. The settings on record: H&E liver sections, end of MCD study; ip bid 28 days; FIG. 4.
Data set [4] concerns plasma UR. Put plainly: Plasma UR concentration versus plasma Compound 1 concentration after continuous sc osmotic-pump infusion. It counts as in vivo. To be noted: BDF-1 male mice, result in words. On the procedure: For this reason continuous infusion of compound I (authentic TK-112690, Batch TCY90108) to BDF-1 ♂ mice were administered via a sc implanted osmotic pumps and the UR plasma concentration measured, ^46 Deng Y, Wang Z V, Gordillo R, An Y, Zhang C, Liang Q, Yoshino J, Cautivo K M, De Brabander J, Elrnquist J K, Horton J D, Hill J A, Klein S, Scherer P E. An adipo-biliary-uridine axis that regulates energy homeostasis. Science 2017, 17; 355(6330)
Solutions of Compound I were prepared at a concentration of 500 mg/mL in sterile PBS. Osmotic pumps (ALZET® micro-osmotic pump 2001 D and 1003D, Alza Co) were loaded with 200 μL (2001D osmotic pump) and/or 100 μL (1003D osmotic pump) of TK-112690 solution.
BDF-1 male mice (n=6) were treated with a constant-rate infusion of 667, 833 or 3000 mg/kg/day doses of Compound I delivered via subcutaneously implanted osmotic pumps. Animals were anesthetized with 100 mg/kg ketamine prior to pump implantation. Surgical scissors were used to make an approximately 1 cm incision on the dorsal surface near the shoulder blade of animals. A hemostat was used to carve out a subcutaneous tunnel toward the anterior end of animal. Osmotic pumps were placed inside the subcutaneous tunnel. […]
A solid-phase extraction (SPE) of analytes (UR, Compound I and 5-FU) from plasma was conducted before HPLC analysis. […] Samples were transferred into fresh HPLC vials and analyzed. […]

The conditions of data set [5]: UR, reference 46; cited from earlier work.

This is an account of results in patent publication US12667571B2, “Uridine phosphorylase (UPase) inhibitors for treatment of liver conditions” (Tosk, Inc., priority 2019, dated 2026).

SMILES strings stand for the structures. Entries after “also recorded” stand apart in the source; their conditions may differ.

The term half-life denotes how long it takes for the measured level to halve. A higher half-life goes with slow decline. In data set [1], `Cc1cn2c(nc1=O)O[C@H]1[C@H](O)[C@@H](CO)O[C@H]12` [Compound 1] yielded a half-life of 1 to 2 h. Also, in data set [2], the ALT result is “no difference”, the AST entry was “no difference”, the cholesterol result was “no difference” and the total triglycerides entry was “no difference”. Also, the “liver fibrosis scoring compared to vehicle treated controls” value in data set [3] was “statistically different”. Besides, in data set [4], the “effect on plasma UR level” value is on record as “elevate plasma UR in a linear fashion; also recorded: associated with higher levels of UR”.
`O=c1ccn([C@@H]2O[C@H](CO)[C@@H](O)[C@H]2O)c(=O)[nH]1` [UR, uridine]: in data set [5], the “elimination t1/2” value is “only a few minutes”. Moreover, in data set [2], the ALT result is given as “no difference”, the AST result was “no difference”, the cholesterol entry was “no difference” and the total triglycerides result was “no difference”. Further, the “liver fibrosis scoring compared to vehicle treated controls” value in data set [3] is recorded as “statistically different”.
